The values that follow come from patent publication US11155539B2, “4-pyridinylmethyl-morpholine derivatives and the use thereof as medicament” (Boehringer Ingelheim International GmbH, priority 2018, dated 2021).

One series has as its target Nav1.6 (Homo sapiens, UniProt Q9UQD0). Description: Nav 1.6 inhibition, IonWorks Quattro electrophysiology. It is filed as cell-based. The settings on record: for inhibition at 1 µM / inhibition at 5 µM: normalized to vehicle control (0%) and maximal inhibition control (100%). The essentials: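 Human Nav1.6 currents recorded on IonWorks Quattro with amphotericin B (200 μg/ml) perforated access; compounds at final 1 and 5 μM in 0.3% DMSO. Cells held at −120 mV, prepulsed to 0 mV for 2500 ms, 10 ms recovery at −120 mV, then 20 ms test pulse to 0 mV; values are normalized percentage inhibition.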
Background: The patch-clamp technique gives a direct electrical read-out from membranes.

In the next series the target is T1, MDR1 (P-gp) (Homo sapiens, UniProt P08183).
T1 construct: expressed in transfected cells; host or cells: MDCKII (Madin-Darby canine kidney)
T1 sequence (P08183 whole entry): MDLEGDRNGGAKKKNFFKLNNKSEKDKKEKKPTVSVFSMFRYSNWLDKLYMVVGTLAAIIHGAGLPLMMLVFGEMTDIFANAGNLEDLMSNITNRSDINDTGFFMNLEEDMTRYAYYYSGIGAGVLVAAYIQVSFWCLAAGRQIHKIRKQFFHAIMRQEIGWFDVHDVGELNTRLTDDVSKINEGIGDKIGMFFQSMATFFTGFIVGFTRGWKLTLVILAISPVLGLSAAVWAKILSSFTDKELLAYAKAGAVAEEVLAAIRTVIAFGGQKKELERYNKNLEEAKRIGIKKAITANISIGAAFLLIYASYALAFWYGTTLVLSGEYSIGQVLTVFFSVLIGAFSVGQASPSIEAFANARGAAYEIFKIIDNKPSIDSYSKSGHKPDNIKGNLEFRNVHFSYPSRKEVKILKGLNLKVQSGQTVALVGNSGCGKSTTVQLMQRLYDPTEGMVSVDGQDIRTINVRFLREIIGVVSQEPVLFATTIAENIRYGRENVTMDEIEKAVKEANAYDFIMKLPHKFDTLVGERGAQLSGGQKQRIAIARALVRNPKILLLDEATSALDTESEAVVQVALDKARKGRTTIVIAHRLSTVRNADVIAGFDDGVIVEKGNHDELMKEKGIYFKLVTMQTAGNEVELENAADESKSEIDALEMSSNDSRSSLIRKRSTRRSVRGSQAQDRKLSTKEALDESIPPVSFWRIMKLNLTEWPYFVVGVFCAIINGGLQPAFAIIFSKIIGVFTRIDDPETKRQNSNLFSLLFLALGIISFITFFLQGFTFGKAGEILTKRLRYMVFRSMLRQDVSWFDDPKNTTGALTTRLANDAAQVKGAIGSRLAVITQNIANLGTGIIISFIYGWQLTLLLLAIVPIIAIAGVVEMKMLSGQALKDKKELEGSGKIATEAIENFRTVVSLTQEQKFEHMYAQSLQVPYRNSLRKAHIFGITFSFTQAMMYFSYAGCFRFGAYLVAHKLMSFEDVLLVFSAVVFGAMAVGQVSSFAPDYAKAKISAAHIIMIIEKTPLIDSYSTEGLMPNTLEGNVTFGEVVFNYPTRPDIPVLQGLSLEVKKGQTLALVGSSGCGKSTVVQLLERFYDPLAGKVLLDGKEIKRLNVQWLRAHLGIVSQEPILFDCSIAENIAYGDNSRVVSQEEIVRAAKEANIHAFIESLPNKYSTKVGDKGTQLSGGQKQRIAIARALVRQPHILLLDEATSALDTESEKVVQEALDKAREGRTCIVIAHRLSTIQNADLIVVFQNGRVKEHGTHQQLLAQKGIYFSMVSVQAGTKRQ
Briefly: MDCK assay P-gp (permeability across MDCK-MDR1 monolayers). Conditions: for Papp A→B at 2 h: apical-to-basal, MDCK-MDR1 monolayers, pH 7.4; for efflux ratio at 2 h: pH 7.4, Papp (b-a) divided by Papp (a-b), MDCK-MDR1, read-out: efflux ratio PEBA/PEAB. It is filed as in vitro ADME. On the procedure: The MDCK assays provide information on the potential of a compound to pass the blood brain barrier. Permeability measurements across polarized, confluent MDCK-MDR1 cell monolayers grown on permeable filter supports are used as an in vitro absorption model: apparent permeability coefficients (PE) of the compounds across the MDCK-MDR1 cell monolayers are measured (pH 7.4, 37° C.) in apical-to-basal (AB) and basal-to-apical (BA) transport direction. The AB permeability (PEAB) represents drug absorption from the blood into the brain and the BA permeability (PEBA) drug efflux from the brain back into the blood via both, passive permeability as well as active transport mechanisms mediated by efflux and uptake transporters that are expressed on the MDCK-MDR1 cells, predominantly by the overexpressed human MDR1. Identical or similar permeabilities in both transport directions indicate passive permeation (PEBA/PEAB≤1), vectorial permeability points to additional active transport mechanisms. Higher PEBA than PEAB (PEBA/PEAB>5) indicates the involvement of active efflux mediated by MDR1, which might compromise the goal to achieve sufficient brain exposure. Therefore, this assay provides valuable support for selection of compounds applicable for further in vivo testing. High permeability not limited by efflux at the blood brain barrier is a favorable characteristic for compounds that are to be used for drugs acting primarily in the CNS.
Apparent permeability coefficients (Papp) of the compounds across the MDCK-MDR1 monolayers (MDCKII cells transfected with human MDR1 cDNA expression plasmid) are measured in apical-to-basal (AB) and basal-to-apical (BA) direction. MDCK-MDR1 cells (6×10^5 cells/cm^2) are seeded on filter inserts (Corning, Transwell, polycarbonate, 0.4 μm pore size) and cultured for 9 to 10 days. Compounds dissolved in DMSO stock solution (1-20 mM) are diluted with HTP-4 aqueous buffer (128.13 mM NaCl, 5.36 mM KCl, 1 mM MgSO4, 1.8 mM CaCl2, 4.17 mM NaHCO3, 1.19 mM Na2HPO4, 0.41 mM NaH2PO4, 15 mM HEPES, 20 mM glucose, pH 7.4) supplemented with 0.25% BSA to prepare the transport solutions (final concentration: 1 or 10 μM, final DMSO<=0.5%). The transport solution is applied to the apical or basolateral donor side for measuring A-B or B-A permeability, respectively. The receiver side contains HTP-4 buffer supplemented with 0.25% BSA. Samples are collected at the start and end of experiment from the donor and at various time intervals for up to 2 hours also from the receiver side for concentration measurement by HPLC-MS/MS (RapidFire High-throughput MS System (Agilent) coupled to QTrap 6500 (AB Sciex) or TSQ Vantage (Thermo Scientific)). Sampled receiver volumes are replaced with fresh receiver solution. Efflux ratio is calculated dividing the Papp (b-a) values by the Papp (a-b) values.

Series [1] is described as follows: Metabolic stability in pooled human liver microsomes. Conditions: pH 7.6, 1 μM compound, 37° C., NADPH, read-out: Half-life - t½ human liver microsomes. It is filed as in vitro ADME. From the text:
Stability in human liver microsomes refers to the susceptibility of compounds to biotransformation in the context of selecting and/or designing drugs with favorable pharmacokinetic properties. The primary site of metabolism for many drugs is the liver. Human liver microsomes contain the cytochrome P450s (CYPs), and thus represent a model system for studying drug metabolism in vitro Enhanced stability in human liver microsomes is associated with several advantages, including increased bioavailability and adequate half-life, which can enable lower and less frequent dosing of patients. Thus, enhanced stability in human liver microsomes is a favorable characteristic for compounds that are to be used for drugs.
The metabolic degradation of the test compound was assayed at 37° C. with pooled human liver microsomes. The final incubation volume of 60 μl per time point contains TRIS buffer pH 7.6 at room temperature (0.1 M), magnesium chloride (5 mM aqueous solution), microsomal protein (1 mg/mL for human) and the test compound at a final concentration of 1 μM. Following a short preincubation period at 37° C., the reactions were initiated by addition of betanicotinamide adenine dinucleotide phosphate, reduced form (NADPH, 1 mM), and terminated by transferring an aliquot into acetonitril after different time points. After centrifugation (10000 g, 5 min), an aliquot of the supernatant was assayed by HPLC-MS/MS as described above for the MDCK assay P-gp for the amount of parent compound. The half-life was determined by the slope of the semi-logarithmic plot of the concentration-time profile.
In general terms: Liver microsomes are a subcellular fraction often used to study metabolism.

Usually inhibition stands for the drop in the measured response relative to a control, in per cent. The Papp A→B is the apparent permeability from the apical to the basolateral side of a cell layer. The half-life is the time in which the quantity being followed falls by half.

Sequence of Nav1.6 (Q9UQD0 whole entry): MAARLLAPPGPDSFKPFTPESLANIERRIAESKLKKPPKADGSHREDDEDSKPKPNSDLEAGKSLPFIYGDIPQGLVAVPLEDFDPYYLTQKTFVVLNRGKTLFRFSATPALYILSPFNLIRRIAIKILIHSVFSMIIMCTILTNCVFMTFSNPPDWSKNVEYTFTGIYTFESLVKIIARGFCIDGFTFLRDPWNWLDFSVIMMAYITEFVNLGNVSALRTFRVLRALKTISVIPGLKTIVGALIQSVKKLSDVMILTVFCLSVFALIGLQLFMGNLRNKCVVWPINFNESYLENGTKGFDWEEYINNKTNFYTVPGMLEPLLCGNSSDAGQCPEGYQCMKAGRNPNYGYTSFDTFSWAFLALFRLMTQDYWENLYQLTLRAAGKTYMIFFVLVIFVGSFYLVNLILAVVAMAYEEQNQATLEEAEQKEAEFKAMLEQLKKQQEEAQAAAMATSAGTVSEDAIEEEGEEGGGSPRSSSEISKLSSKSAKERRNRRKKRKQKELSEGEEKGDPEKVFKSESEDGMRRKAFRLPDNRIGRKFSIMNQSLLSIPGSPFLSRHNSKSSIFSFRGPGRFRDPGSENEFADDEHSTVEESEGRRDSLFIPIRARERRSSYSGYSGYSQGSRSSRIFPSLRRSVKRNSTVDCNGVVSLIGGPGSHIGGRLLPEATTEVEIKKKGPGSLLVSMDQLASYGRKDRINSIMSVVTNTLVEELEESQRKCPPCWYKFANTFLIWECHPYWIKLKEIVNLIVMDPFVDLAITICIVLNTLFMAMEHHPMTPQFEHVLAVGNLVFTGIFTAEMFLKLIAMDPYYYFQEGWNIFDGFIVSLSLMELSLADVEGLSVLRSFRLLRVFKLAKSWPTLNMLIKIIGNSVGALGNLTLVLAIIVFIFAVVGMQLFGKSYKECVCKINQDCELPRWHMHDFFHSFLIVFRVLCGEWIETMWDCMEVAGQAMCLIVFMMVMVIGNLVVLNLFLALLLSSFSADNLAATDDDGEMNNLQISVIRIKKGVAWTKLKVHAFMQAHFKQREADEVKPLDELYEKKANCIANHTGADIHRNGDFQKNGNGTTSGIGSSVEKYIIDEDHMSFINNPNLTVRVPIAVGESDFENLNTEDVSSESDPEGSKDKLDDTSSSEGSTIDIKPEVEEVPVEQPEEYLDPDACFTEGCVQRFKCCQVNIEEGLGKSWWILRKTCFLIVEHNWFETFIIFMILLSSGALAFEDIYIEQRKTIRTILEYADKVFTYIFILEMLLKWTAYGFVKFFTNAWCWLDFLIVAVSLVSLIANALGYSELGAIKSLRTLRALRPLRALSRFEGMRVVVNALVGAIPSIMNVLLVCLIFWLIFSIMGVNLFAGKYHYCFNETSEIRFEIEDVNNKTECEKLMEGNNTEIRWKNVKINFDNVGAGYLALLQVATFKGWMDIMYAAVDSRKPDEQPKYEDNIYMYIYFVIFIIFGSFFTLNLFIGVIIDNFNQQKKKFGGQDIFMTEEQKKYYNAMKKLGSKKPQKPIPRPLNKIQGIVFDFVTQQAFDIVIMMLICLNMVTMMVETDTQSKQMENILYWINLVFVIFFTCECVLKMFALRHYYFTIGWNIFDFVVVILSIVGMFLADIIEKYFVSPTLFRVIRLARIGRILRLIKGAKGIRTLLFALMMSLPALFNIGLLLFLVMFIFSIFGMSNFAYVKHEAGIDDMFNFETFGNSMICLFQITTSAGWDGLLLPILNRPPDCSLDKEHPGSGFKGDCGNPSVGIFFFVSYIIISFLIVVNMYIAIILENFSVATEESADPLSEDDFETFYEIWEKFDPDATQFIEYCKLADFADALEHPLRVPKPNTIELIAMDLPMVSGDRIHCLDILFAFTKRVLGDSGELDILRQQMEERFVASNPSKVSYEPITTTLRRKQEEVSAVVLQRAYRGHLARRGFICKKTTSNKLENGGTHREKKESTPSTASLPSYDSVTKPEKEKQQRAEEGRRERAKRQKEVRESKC

For `CNC(=O)[C@@H]1CN(Cc2ccc(Oc3ccccc3Cl)nc2)CCO1` [Example 17], on Nav1.6, the inhibition at 1 µM was determined as 22% and the inhibition at 5 µM is -4.3%. Besides, on MDR1 (P-gp), the Papp A→B at 2 h was determined as 670 nm/s and the efflux ratio at 2 h was found to be 0.6. In series [1], the half-life at 1 μM was over 2.17 h.
With `CNC(=O)[C@@H]1CN(Cc2ccc(Oc3ccccc3F)nc2)CCO1` [Example 19], at Nav1.6, the inhibition at 1 µM turned out to be 5.2% and the inhibition at 5 µM is -6.3%. On Nav1.6 (at 5 μM), the “significant inhibition of the Nav 1.6 channel (in words)” value is reported as “not showing any significant inhibition”. Further, at MDR1 (P-gp), the Papp A→B at 2 h was 750 nm/s and the efflux ratio at 2 h was 0.7. Moreover, in series [1], the half-life at 1 μM is over 2.17 h.
Take `CNC(=O)[C@@H]1CN(Cc2ccc(Oc3ccc(C)cc3)nc2)CCO1` [Example 29]: on Nav1.6, the inhibition at 1 µM was determined as 1.8% and the inhibition at 5 µM was 3%. For the same compound, on MDR1 (P-gp), the Papp A→B at 2 h was found to be 580 nm/s and the efflux ratio at 2 h came to 0.8. Further, the half-life at 1 μM in series [1] was over 2.17 h.
The corresponding values for `CNC(=O)[C@@H]1CN(Cc2ccc(Oc3ccc(F)cc3)cn2)CCO1` [Example 30] are 7.6%, 6.8%, 860 nm/s, 0.5 and over 2.17 h.
